Our source for the Ki values is patent publication US6004790A, “Cyclomaltodextrin glucanotransferase variants” (priority 1995, dated 1999).

Common to all, as to experiment: Kinetic studies of β-cyclodextrin forming activity on Paselli SA2 with and without β-cyclodextrin (product inhibition)
Holding throughout (type): biochemical

For experiment [1], the target named is T1, Bacillus circulans Strain 251 CGTase (cyclomaltodextrin glucanotransferase), wild type, SEQ ID NO: 70 (Niallia circulans, UniProt P43379).
T1 construct: a high extracellular production of wild-type enzyme and CGTase variants was obtained reproducibly; made in house; host or cells: Bacillus subtilis Strain DB104A (plasmid pDP66K)
T1 sequence (P43379 28-713): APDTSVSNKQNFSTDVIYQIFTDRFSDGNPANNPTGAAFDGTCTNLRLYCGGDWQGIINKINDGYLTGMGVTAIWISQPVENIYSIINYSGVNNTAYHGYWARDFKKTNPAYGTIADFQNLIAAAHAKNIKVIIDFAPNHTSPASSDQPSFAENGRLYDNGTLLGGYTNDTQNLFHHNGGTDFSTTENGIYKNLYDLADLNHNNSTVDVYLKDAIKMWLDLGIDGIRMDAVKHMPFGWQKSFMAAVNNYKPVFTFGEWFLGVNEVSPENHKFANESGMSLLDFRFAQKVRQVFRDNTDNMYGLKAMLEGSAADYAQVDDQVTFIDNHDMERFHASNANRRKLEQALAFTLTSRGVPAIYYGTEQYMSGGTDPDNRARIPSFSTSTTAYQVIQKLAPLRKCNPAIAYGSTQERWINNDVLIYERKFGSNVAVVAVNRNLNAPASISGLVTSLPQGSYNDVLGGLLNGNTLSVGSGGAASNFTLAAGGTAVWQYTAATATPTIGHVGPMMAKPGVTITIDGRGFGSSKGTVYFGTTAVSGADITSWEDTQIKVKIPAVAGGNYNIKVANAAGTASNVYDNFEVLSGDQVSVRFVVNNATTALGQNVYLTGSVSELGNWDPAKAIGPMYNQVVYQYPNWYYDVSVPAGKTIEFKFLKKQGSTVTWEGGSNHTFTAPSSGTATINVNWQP
The settings on record: inhibition by β-cyclodextrin (0.1 or 0.2 mM), substrate 0-5% Paselli SA2, 50° C., Hill equation fit. As for the experimental part: (§1) β-cyclodextrin Forming Activity: β-cyclodextrin forming activity was determined using 5% Paselli™ SA2 (i.e. partially hydrolysed potato starch with an average degree of polymerization of 50, available from AVEBE, Foxhol, The Netherlands) as substrate and after incubation for 3 minutes at 50° C. 0.1-0.1 units of activity were used. The β-cyclodextrin formed was determined based on its ability to form a stable colorless inclusion complex with phenolphthalein. One unit of activity is defined as the amount of enzyme able to form 1 μmol of β-cyclodextrin per minute.
(§2) Kinetic Studies: Kinetic studies on Paselli™ SA2 (AVEBE, Foxhol, The Netherlands) were performed by determination of the β-cyclodextrin forming activity of the enzyme on Paselli™ concentrations ranging from 0 to 5%, with and without addition of 0.1 or 0.2 mM of β-cyclodextrin. In these experiments approx. 0.6 μg/ml (0.15-0.18 units) of enzyme was used.
(§3) The data collected from these kinetic and binding studies were fitted using the Hill equation, yielding Ymax and K50 values for the binding studies, and Vmax and K50 values for the kinetic studies. Ki values were calculated as follows. [formula] Results

Experiment [2] has as its target T2, Bacillus circulans Strain 251 CGTase variant W616A/W662A (Niallia circulans, UniProt P43379, W643A/W689A).
T2 construct: a high extracellular production of wild-type enzyme and CGTase variants was obtained reproducibly; made in house; host or cells: Bacillus subtilis Strain DB104A (plasmid pDP66K)
The protocol:
as §1, §2, §3

Experiment [3] concerns the target T3, Bacillus circulans Strain 251 CGTase variant Y633A (Niallia circulans, UniProt P43379, Y660A).
T3 construct: a high extracellular production of wild-type enzyme and CGTase variants was obtained reproducibly; made in house; host or cells: Bacillus subtilis Strain DB104A (plasmid pDP66K)
The protocol: as §1, §2, §3

T3 sequence (P43379 28-713 Y660A): as the sequence (P43379 28-713) above, with Y633A counted along it
T2 sequence (P43379 28-713 W643A/W689A): as the sequence (P43379 28-713) above, with W616A, W662A counted along it

For the compound `OC[C@H]1O[C@@H]2O[C@H]3[C@H](O)[C@@H](O)[C@@H](O[C@H]4[C@H](O)[C@@H](O)[C@@H](O[C@H]5[C@H](O)[C@@H](O)[C@@H](O[C@H]6[C@H](O)[C@@H](O)[C@@H](O[C@H]7[C@H](O)[C@@H](O)[C@@H](O[C@H]8[C@H](O)[C@@H](O)[C@@H](O[C@H]1[C@H](O)[C@H]2O)O[C@@H]8CO)O[C@@H]7CO)O[C@@H]6CO)O[C@@H]5CO)O[C@@H]4CO)O[C@@H]3CO` [β-cyclodextrin], the Ki in experiment [1] is 380 µM; in experiment [2] it was 1110 µM; in experiment [3], 210 µM.

By Ki is commonly meant the dissociation constant of the complex between target and ligand, obtained from inhibition or displacement.
